Here are results for 15 compounds from ChEMBL document CHEMBL1133417, “N-[[1-(2-phenylethyl)pyrrolidin-2-yl]methyl]cyclohexanecarboxamides as selective 5-HT1A receptor agonists” (Bioorg Med Chem Lett, 2000).

The target of assay [1] is T1, 5-hydroxytryptamine receptor 1A (Rattus norvegicus, UniProt P19327).
T1 sequence (P19327 whole entry): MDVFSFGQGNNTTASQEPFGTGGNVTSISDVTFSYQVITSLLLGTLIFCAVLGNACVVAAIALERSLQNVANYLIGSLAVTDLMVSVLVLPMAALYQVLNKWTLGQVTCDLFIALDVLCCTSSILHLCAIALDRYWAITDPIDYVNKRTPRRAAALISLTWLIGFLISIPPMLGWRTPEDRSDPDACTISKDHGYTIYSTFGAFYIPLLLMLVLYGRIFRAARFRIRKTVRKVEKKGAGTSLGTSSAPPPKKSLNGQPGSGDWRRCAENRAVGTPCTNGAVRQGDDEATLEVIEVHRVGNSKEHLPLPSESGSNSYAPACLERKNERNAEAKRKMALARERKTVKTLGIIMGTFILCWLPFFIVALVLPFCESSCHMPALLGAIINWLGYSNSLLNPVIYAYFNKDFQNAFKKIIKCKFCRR
As to the kind of experiment: Displacement of [3H]8-OH-DPAT from rat striata 5-hydroxytryptamine 1A receptor.

Assay [2] addresses T2, Serotonin 2 (5-HT2) receptor (Rattus norvegicus, UniProt P30994+P08909+P14842). Kind of assay: Binding affinity for 5-hydroxytryptamine 2 receptor from striata of male Wistar rats by displacement of [3H]ketanserin. It is filed as protein assay.
The target in assay [3] is T3, D(2) dopamine receptor (Homo sapiens, UniProt P14416). As to the kind of experiment: Binding affinity for Dopamine receptor D2 by displacement of [3H]-spiperone.
T3 sequence (P14416 whole entry): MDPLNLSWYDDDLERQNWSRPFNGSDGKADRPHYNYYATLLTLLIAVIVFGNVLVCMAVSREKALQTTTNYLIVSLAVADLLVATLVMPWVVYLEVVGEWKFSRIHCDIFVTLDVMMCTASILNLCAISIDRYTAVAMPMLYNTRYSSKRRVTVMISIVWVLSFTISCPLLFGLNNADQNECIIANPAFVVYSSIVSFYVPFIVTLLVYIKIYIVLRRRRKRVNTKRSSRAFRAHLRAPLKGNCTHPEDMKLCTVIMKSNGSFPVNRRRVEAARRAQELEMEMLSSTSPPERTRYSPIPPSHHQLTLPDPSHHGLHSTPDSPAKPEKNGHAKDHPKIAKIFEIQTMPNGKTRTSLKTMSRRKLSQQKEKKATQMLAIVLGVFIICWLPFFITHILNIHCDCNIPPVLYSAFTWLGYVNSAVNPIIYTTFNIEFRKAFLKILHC
Assay [4] addresses T1, 5-hydroxytryptamine receptor 1A. As to the kind of experiment: Inhibitory concentration against binding of 5-hydroxytryptamine 1A receptor from striata of male Wistar rats by displacement of [3H]8-OH-DPAT.
Assay [5] has as its target T3, D(2) dopamine receptor. Kind of assay: Inhibitory concentration against binding of Dopamine receptor D2 by displacement of [3H]spiperone.
The target of assay [6] is T2, Serotonin 2 (5-HT2) receptor. Kind of assay: Inhibitory concentration against 5-hydroxytryptamine 2 receptor from striata of male Wistar rats by displacement of [3H]-ketanserin. It is filed as protein assay.
The target is the same in assay [7]. As to the kind of experiment: Inhibitory concentration against binding of 5-hydroxytryptamine 2 receptor from striata of male Wistar rats by displacement of [3H]-ketanserin. It is filed as protein assay.

Consider `COc1ccc(SC)cc1C(=O)NC[C@@H]1CCCN1CCc1ccccc1`, for which the figures for the Ki in assay [1], in assay [2] and in assay [3] were 24 nM, 170 nM l-1 and 460 nM, respectively.
Turning to `O=C(NC[C@H]1CCCN1CCc1ccccc1)c1ccccc1`, the IC50 in assay [4] was above 1000 nM; in assay [5] it was above 1000 nM; in assay [6], above 1000 nM l-1.
For the compound `O=C(NC[C@@H]1CCCN1CCc1ccccc1)C1CCCCC1`, the IC50 in assay [5] is above 1000 nM. Besides, the Ki in assay [1] worked out at 0.49 nM; in assay [2] it was 240 nM l-1.
For `CSc1cccc(C(=O)NC[C@@H]2CCCN2CCc2ccccc2)c1` the same measures were above 1000 nM, 4.3 nM and 160 nM l-1.
Take `O=C(NC[C@H]1CCCN1CCc1ccccc1)C1CCCCC1`: the results for the IC50 in assay [5] and in assay [6] were above 1000 nM and above 1000 nM l-1, respectively. For the same compound, the Ki in assay [1] came out at 190 nM.
Compound `CCCN(CCC)C1CCc2cccc(O)c2C1` (stereo unspecified) [8-OH-DPAT] showed an IC50 in assay [6] above 1000 nM l-1.
Turning to `COc1cc2c(c(C(=O)NC[C@@H]3CCCN3CCc3ccccc3)c1)OCC2`, the Ki in assay [1] came out at 21 nM; in assay [2] it was 660 nM l-1; in assay [3] it was 120 nM.
`O=C(c1ccc(F)cc1)C1CCN(CCn2c(=O)[nH]c3ccccc3c2=O)CC1` [KETANSERIN] yielded an IC50 in assay [4] above 1000 nM. Moreover, in assay [3], the Ki stood at 240 nM.
`CCCCN1CCC[C@H]1CNC(=O)c1cc(Cl)cc2c1OCCN2C`: the Ki was determined as 300 nM in assay [2] (read-out: Ki) and 12 nM in assay [3].
Compound `CN1CCOc2c(C(=O)NC[C@H]3CCCN3CCc3ccccc3)cc(Cl)cc21` displayed an IC50 in assay [7] above 1000 nM l-1.
In the case of `CSc1cc2c(c(C(=O)NC[C@H]3CCCN3CCc3ccccc3)c1)OCC2`, the Ki stood at 100 nM in assay [1], 430 nM l-1 in assay [2] and 6.7 nM in assay [3].
Compound `O=C(NC[C@@H]1CCCN1CCc1ccccc1)c1ccccc1` returned an IC50 in assay [5] above 1000 nM. Moreover, the Ki in assay [1] stood at 4.6 nM; in assay [2] it was 430 nM l-1.
In the case of `CN1CCOc2c(C(=O)NC[C@@H]3CCCN3CCc3ccccc3)cc(Cl)cc21`, the Ki in assay [2] (read-out: Ki) was determined as 280 nM.
For the compound `CSc1cccc(C(=O)NC[C@H]2CCCN2CCc2ccccc2)c1`, the results for the IC50 in assay [5] and in assay [7] were above 1000 nM and above 1000 nM l-1, respectively. In assay [1], this compound yielded a Ki of 110 nM.
With `CCCCN1CCC[C@@H]1CNC(=O)c1cc(Cl)cc2c1OCCN2C`, the Ki in assay [2] (read-out: Ki) was 86 nM; in assay [3], 630 nM.
